Results: patent publication US20240100170A1, “CYCLIC-AMP RESPONSE ELEMENT BINDING PROTEIN (CBP) AND/OR ADENOVIRAL E1A BINDING PROTEIN OF 300 KDA (P300) DEGRADATION COMPOUNDS AND METHODS OF USE” (CULLGEN (SHANGHAI), INC., priority 2020, published 2024)
Where two headings read alike, the source gives them in different places.

Experiments:
[1] = test system: LNCaP prostate cancer cell; experiment: LNCaP cell viability (CellTiter-Glo); format: cell-based; details: 3 days; for IC50: Homo sapiens, 72 h, LNCaP cell viability, CellTiter-Glo
Procedure: LNCaP cells seeded in 96-well plates were treated with 10 μM GNE-781 or selected bivalent compounds, i.e. P-001, P-002, and P-019, following a 12-point 3-fold serial dilution. Three days after treatment, cell viability was determined using the CellTiter-Glo kit (Promega) following manufacturer's instructions. Cell viability was normalized to the mean values of 3 replicates of untreated cells. Dose-dependent response was analyzed following the least-squares non-linear regression method using the GraphPad Prism 5.0 software.
LNCaP (clone FGC), 22RV1 and other cells were cultured at 37° C. with 5% CO 2 in RPMI 1640 Medium supplemented with 10% fetal bovine serum. Cells were authenticated using the short tandem repeat (STR) assays. Mycoplasma test results were negative.
Cells were seeded at a density of 5000 cells per well in 96-well assay plates and treated with test compounds following a 12-point 3-fold serial dilution. Three days later, cell viability was determined using the CellTiter-Glo assay kit according to the manufactureR's instructions. The dose-response curves were determined and IC50 values were calculated using the GraphPad Prism software following a nonlinear regression (least squares fit) method.

[2] = target: P300 (Homo sapiens, UniProt Q09472); experiment: percentage of inhibition (degradation) of p300 at 10 nM, Tables 2-4; format: cell-based; set-up: LNCaP or 22RV1 cells that express CBP/P300 proteins were treated with GNE-781 or the bivalent compounds; endogenous in cells; host or cells: LNCaP or 22RV1 (not given); details: p300, 10 nM, read-out: Degradation (10 nM)
Sequence of P300 (Q09472 whole entry): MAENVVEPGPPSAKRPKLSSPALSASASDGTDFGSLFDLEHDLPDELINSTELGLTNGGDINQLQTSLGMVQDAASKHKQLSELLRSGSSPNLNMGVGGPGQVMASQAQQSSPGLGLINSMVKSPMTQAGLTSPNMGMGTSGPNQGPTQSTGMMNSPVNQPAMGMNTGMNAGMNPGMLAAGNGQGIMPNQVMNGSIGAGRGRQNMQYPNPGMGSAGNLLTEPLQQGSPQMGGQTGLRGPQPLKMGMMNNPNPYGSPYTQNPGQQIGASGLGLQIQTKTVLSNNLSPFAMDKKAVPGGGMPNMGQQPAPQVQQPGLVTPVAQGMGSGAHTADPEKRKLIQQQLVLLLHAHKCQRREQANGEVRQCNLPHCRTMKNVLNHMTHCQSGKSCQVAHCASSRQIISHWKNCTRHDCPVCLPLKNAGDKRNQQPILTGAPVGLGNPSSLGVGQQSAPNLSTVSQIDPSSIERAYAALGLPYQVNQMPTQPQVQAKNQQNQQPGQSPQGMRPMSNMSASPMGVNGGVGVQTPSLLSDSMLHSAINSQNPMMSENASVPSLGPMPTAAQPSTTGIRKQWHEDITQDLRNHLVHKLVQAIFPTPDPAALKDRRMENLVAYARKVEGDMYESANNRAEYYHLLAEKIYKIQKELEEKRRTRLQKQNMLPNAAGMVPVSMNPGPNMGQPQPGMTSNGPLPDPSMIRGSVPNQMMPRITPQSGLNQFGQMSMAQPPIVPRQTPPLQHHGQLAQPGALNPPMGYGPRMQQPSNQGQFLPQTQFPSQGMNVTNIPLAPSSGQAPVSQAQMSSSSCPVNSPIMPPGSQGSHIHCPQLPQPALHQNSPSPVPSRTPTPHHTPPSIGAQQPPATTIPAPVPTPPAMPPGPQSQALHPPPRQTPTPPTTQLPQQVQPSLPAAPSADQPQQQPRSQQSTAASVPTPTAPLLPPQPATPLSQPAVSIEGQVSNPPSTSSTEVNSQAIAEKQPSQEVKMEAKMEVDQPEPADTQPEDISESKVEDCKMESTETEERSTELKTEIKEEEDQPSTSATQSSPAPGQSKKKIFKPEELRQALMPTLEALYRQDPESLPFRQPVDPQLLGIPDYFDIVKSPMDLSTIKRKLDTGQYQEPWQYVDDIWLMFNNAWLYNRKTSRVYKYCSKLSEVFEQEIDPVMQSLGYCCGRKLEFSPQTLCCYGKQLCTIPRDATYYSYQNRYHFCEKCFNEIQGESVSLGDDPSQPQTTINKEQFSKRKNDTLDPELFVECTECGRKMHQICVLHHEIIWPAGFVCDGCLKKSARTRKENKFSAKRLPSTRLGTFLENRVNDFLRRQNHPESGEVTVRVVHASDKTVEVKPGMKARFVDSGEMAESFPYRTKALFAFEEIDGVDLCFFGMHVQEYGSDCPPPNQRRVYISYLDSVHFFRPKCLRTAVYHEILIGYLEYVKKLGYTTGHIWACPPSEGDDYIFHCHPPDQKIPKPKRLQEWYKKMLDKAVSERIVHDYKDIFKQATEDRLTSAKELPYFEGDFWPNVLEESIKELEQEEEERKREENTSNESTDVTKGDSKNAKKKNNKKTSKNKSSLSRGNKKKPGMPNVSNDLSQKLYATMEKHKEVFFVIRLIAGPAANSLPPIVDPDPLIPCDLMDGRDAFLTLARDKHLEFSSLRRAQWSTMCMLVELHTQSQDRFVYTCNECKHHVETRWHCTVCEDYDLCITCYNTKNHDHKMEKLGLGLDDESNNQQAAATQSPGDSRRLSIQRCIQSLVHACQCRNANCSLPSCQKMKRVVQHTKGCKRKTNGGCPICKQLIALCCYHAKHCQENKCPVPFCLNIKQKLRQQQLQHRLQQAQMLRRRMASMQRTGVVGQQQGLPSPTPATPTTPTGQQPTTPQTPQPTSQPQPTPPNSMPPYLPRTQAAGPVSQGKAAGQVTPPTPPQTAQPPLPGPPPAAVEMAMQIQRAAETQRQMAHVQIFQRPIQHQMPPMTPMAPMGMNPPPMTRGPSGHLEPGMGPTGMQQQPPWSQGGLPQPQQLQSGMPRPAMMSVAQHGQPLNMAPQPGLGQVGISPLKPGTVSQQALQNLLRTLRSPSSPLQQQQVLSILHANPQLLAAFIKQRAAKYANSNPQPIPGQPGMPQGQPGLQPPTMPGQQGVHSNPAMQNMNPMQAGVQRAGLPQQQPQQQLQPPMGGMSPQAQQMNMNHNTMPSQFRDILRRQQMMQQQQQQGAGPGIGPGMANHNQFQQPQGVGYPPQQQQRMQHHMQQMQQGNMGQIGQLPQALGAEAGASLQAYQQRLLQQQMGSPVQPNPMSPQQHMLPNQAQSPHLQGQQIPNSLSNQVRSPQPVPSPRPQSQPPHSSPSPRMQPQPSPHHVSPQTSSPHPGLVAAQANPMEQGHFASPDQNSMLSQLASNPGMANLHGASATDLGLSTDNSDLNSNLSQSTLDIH
Procedure: Cultured cells or tissue chunks were washed with cold PBS once and lysed in cold RIPA buffer supplemented with protease inhibitors and phosphatase inhibitors (Beyotime Biotechnology). The solutions were then incubated at 4° C. for 30 minutes with gentle agitation to fully lyse cells. Cell lysates were centrifuged at 13,000 rpm for 10 minutes at 4° C. and pellets were discarded. Total protein concentrations in the lysates were determined by BCA assays (Beyotime Biotechnology). Cell lysates were mixed with Laemmli loading buffer to 1 X and heated at 99° C. for 5 min. Proteins were resolved on SDS-PAGE and visualized by chemiluminescence. Images were taken by a ChemiDoc MP Imaging system (Bio-Rad). Protein bands were quantitated using the accompanied software provided by Bio-Rad.

IC50 ([1]; Table 4) [nM] | Structure (SMILES) | further results
12.9 | CC(=O)N1CCc2c(c(N3CCCc4cc(-c5cnn(C)c5)c(C(F)F)cc43)nn2C2CCN(C(=O)CCN3CCC(CCc4cccc5c4n(C)c(=O)n5C4CCC(=O)NC4=O)CC3)CC2)C1 (centres unmarked) [P-232, 3-(4-(2-(1-(3-(4-(5-Acetyl-3-(7-(difluoromethyl)-6-(1-methyl-1H-pyrazol-4-yl)-3,4-dihydroquinolin-1(2H)-yl)-4,5,6,7-tetrahydro-1H-pyrazolo[4,3-c]pyridin-1-yl)piperidin-1-yl)-3-oxopropyl)piperidin-4-yl)ethyl)-3-methyl-2-oxo-2,3-dihydro-1H-benzo[d]imidazol-1-yl)piperidine-2,6-dione] | inhibition at 0.01 µM ([2]; Table 4): > 80%
– | CNC(=O)N1CCc2c(c(N3CCCc4cc(-c5cnn(C)c5)c(C(F)F)cc43)nn2C2CCN(C(=O)CCOCCC(=O)N[C@H](C(=O)N3C[C@H](O)C[C@H]3C(=O)NCc3ccc(-c4scnc4C)cc3)C(C)(C)C)CC2)C1 [P-065, 3-(7-(difluoromethyl)-6-(1-methyl-1H-pyrazol-4-yl)-3,4-dihydroquinolin-1(2H)-yl)-1-(1-(3-(3-(((S)-1-((2S,4R)-4-hydroxy-2-((4-(4-methylthiazol-5-yl)benzyl)carbamoyl)pyrrolidin-1-yl)-3,3-dimethyl-1-oxobutan-2-yl)amino)-3-oxopropoxy)propanoyl)piperidin-4-yl)-N-methyl-1,4,6,7-tetrahydro-5H-pyrazolo[4,3-c]pyridine-5-carboxamide] | IC50 ([1]; Table 3): 74.5 nM; inhibition at 0.01 µM ([2]; Table 3): < 20%
> 500 | CC(=O)N1CCc2c(c(N3CCCc4cc(-c5cnn(C)c5)c(C(F)F)cc43)nn2C2CCN(C(=O)CCN3CCN(CC(=O)Nc4cccc(NC5CCC(=O)NC5=O)c4)CC3)CC2)C1 (centres unmarked) [P-258, 2-(4-(3-(4-(5-acetyl-3-(7-(difluoromethyl)-6-(1-methyl-1H-pyrazol-4-yl)-3,4-dihydroquinolin-1(2H)-yl)-4,5,6,7-tetrahydro-1H-pyrazolo[4,3-c]pyridin-1-yl)piperidin-1-yl)-3-oxopropyl)piperazin-1-yl)-N-(3-((2,6-dioxopiperidin-3-yl)amino)phenyl)acetamide] | –
> 500 | CC(=O)N1CCc2c(c(N3CCCc4cc(-c5cnn(C)c5)c(C(F)F)cc43)nn2C2CCN(C(=O)CCCN3CCC(Cn4c(=O)n(C5CCC(=O)NC5=O)c5ccccc54)CC3)CC2)C1 (centres unmarked) [P-204, 3-(3-((1-(4-(4-(5-acetyl-3-(7-(difluoromethyl)-6-(1-methyl-1H-pyrazol-4-yl)-3,4-dihydroquinolin-1(2H)-yl)-4,5,6,7-tetrahydro-1H-pyrazolo[4,3-c]pyridin-1-yl)piperidin-1-yl)-4-oxobutyl)piperidin-4-yl)methyl)-2-oxo-2,3-dihydro-1H-benzo[d]imidazol-1-yl)piperidine-2,6-dione] | –
– | CC(=O)N1CCc2c(c(N3CCCc4cc(-c5cnn(C)c5)c(C(F)F)cc43)nn2C2CCN(CCCNC(=O)CNc3cccc4c3C(=O)N(C3CCC(=O)NC3=O)C4=O)CC2)C1 (centres unmarked) [P-124, N-(3-(4-(5-acetyl-3-(7-(difluoromethyl)-6-(1-methyl-1H-pyrazol-4-yl)-3,4-dihydroquinolin-1(2H)-yl)-4,5,6,7-tetrahydro-1H-pyrazolo[4,3-c]pyridin-1-yl)piperidin-1-yl)propyl)-2-((2-(2,6-dioxopiperidin-3-yl)-1,3-dioxoisoindolin-4-yl)amino)acetamide] | IC50 ([1]; Table 3): > 1000 nM
> 500 | CC(=O)N1CCc2c(c(N3CCCc4cc(-c5cnn(C)c5)c(C(F)F)cc43)nn2C2CCN(CCN3CCNC(COc4cccc5c4C(=O)N(C4CCC(=O)NC4=O)C5=O)C3)CC2)C1 (centres unmarked) [P-197, 4-((4-(2-(4-(5-acetyl-3-(7-(difluoromethyl)-6-(1-methyl-1H-pyrazol-4-yl)-3,4-dihydroquinolin-1(2H)-yl)-4,5,6,7-tetrahydro-1H-pyrazolo[4,3-c]pyridin-1-yl)piperidin-1-yl)ethyl)piperazin-2-yl)methoxy)-2-(2,6-dioxopiperidin-3-yl)isoindoline-1,3-dione] | –
> 500 | CC(=O)N1CCc2c(c(N3CCCc4cc(-c5cnn(C)c5)c(C(F)F)cc43)nn2C2CCN(C(=O)CCCCCCCC(=O)Nc3cccc(NC4CCC(=O)NC4=O)c3)CC2)C1 (centres unmarked) [P-263, 9-(4-(5-Acetyl-3-(7-(difluoromethyl)-6-(1-methyl-1H-pyrazol-4-yl)-3,4-dihydroquinolin-1(2H)-yl)-4,5,6,7-tetrahydro-1H-pyrazolo[4,3-c]pyridin-1-yl)piperidin-1-yl)-N-(3-((2,6-dioxopiperidin-3-yl)amino)phenyl)-9-oxononanamide] | –
> 500 | CC(=O)N1CCc2c(c(N3CCCc4cc(-c5cnn(C)c5)c(C(F)F)cc43)nn2C2CCN(C(=O)CCCN3CCC(COc4ccc5c(c4)n(C)c(=O)n5C4CCC(=O)NC4=O)CC3)CC2)C1 (centres unmarked) [P-206] | –
– | CNC(=O)N1CCc2c(c(N3CCCc4cc(-c5cnn(C)c5)c(C(F)F)cc43)nn2C2CCN(C(=O)CNc3ccc4c(c3)C(=O)N(C3CCC(=O)NC3=O)C4=O)CC2)C1 (centres unmarked) [P-001, 3-(7-(difluoromethyl)-6-(1-methyl-1H-pyrazol-4-yl)-3,4-dihydroquinolin-1(2H)-yl)-1-(1-((2-(2,6-dioxopiperidin-3-yl)-1,3-dioxoisoindolin-5-yl)glycyl)piperidin-4-yl)-N-methyl-1,4,6,7-tetrahydro-5H-pyrazolo[4,3-c]pyridine-5-carboxamide] | viability of LNCaP cells ([1]; 3-fold serial dilution from 10 μM, FIG. 4): dose-dependently suppressed viability of LNCaP cells
– | CNC(=O)N1CCc2c(c(N3CCCc4cc(-c5cnn(CC(=O)NCCOCCOCCOCCOCCOCCC(=O)N[C@H](C(=O)N6C[C@H](O)C[C@H]6C(=O)NCc6ccc(-c7scnc7C)cc6)C(C)(C)C)c5)c(C(F)F)cc43)nn2C2CCOCC2)C1 [P-082] | IC50 ([1]; Table 3): > 10000 nM
560 | CC(=O)N1CCc2c(c(N3CCCc4cc(-c5cnn(C)c5)c(C(F)F)cc43)nn2C2CCN(CCCCN3CCC(Cn4c(=O)n(C5CCC(=O)NC5=O)c5ccccc54)CC3)CC2)C1 (centres unmarked) [P-236, 3-(3-((1-(4-(4-(5-acetyl-3-(7-(difluoromethyl)-6-(1-methyl-1H-pyrazol-4-yl)-3,4-dihydroquinolin-1(2H)-yl)-4,5,6,7-tetrahydro-1H-pyrazolo[4,3-c]pyridin-1-yl)piperidin-1-yl)butyl)piperidin-4-yl)methyl)-2-oxo-2,3-dihydro-1H-benzo[d]imidazol-1-yl) piperidine-2,6-dione] | –
– | CNC(=O)N1CCc2c(c(N3CCCc4cc(-c5cnn(C)c5)c(C(F)F)cc43)nn2C2CCN(C(=O)CNc3cccc4c3C(=O)N(C3CCC(=O)NC3=O)C4=O)CC2)C1 (centres unmarked) [P-013, 3-(7-(difluoromethyl)-6-(1-methyl-1H-pyrazol-4-yl)-3,4-dihydroquinolin-1(2H)-yl)-1-(1-((2-(2,6-dioxopiperidin-3-yl)-1,3-dioxoisoindolin-4-yl)glycyl)piperidin-4-yl)-N-methyl-1,4,6,7-tetrahydro-5H-pyrazolo[4,3-c]pyridine-5-carboxamide] | inhibition at 0.01 µM ([2]; Table 2): 20 to 50%
325 | CC(=O)N1CCc2c(c(N3CCCc4cc(-c5cnn(C)c5)c(C(F)F)cc43)nn2C2CCN(C(=O)CCCN3CCC(COc4cccc5c4n(C)c(=O)n5C4CCC(=O)NC4=O)CC3)CC2)C1 (centres unmarked) [P-210, 3-(4-((1-(4-(4-(5-Acetyl-3-(7-(difluoromethyl)-6-(1-methyl-1H-pyrazol-4-yl)-3,4-dihydroquinolin-1(2H)-yl)-4,5,6,7-tetrahydro-1H-pyrazolo[4,3-c]pyridin-1-yl)piperidin-1-yl)-4-oxobutyl)piperidin-4-yl)methoxy)-3-methyl-2-oxo-2,3-dihydro-1H-benzo[d]imidazol-1-yl)piperidine-2,6-dione] | –
> 500 | CC(=O)N1CCc2c(c(N3CCCc4cc(-c5cnn(C)c5)c(C(F)F)cc43)nn2C2CCN(C(=O)CN3CCN(CC(=O)Nc4cccc(NC5CCC(=O)NC5=O)c4)CC3)CC2)C1 (centres unmarked) [P-257, 2-(4-(2-(4-(5-acetyl-3-(7-(difluoromethyl)-6-(1-methyl-1H-pyrazol-4-yl)-3,4-dihydroquinolin-1(2H)-yl)-4,5,6,7-tetrahydro-1H-pyrazolo[4,3-c]pyridin-1-yl)piperidin-1-yl)-2-oxoethyl)piperazin-1-yl)-N-(3-((2,6-dioxopiperidin-3-yl)amino)phenyl)acetamide] | –

Structure (SMILES) | IC50 ([1]; Table 4) [nM] | further results
CC(=O)N1CCc2c(c(N3CCCc4cc(-c5cnn(C)c5)c(C(F)F)cc43)nn2C2CCN(CCN3CCOC(CNc4cccc5c4CN(C4CCC(=O)NC4=O)C5=O)C3)CC2)C1 (centres unmarked) [P-199, 3-(4-(((4-(2-(4-(5-acetyl-3-(7-(difluoromethyl)-6-(1-methyl-1H-pyrazol-4-yl)-3,4-dihydroquinolin-1(2H)-yl)-4,5,6,7-tetrahydro-1H-pyrazolo[4,3-c]pyridin-1-yl)piperidin-1-yl)ethyl)morpholin-2-yl)methyl)amino)-1-oxoisoindolin-2-yl)piperidine-2,6-dione] | > 500 | –
